pIC50: −log10 of the molar value. Like-named read-outs stand apart in the source and are kept apart here.
What was measured:
adenosine A2B receptor = adenosine A2B receptor (Homo sapiens (Human), UniProt P29275); assay: Adenosine receptor activity assay (Table 1), A2B activity; format: biochemical; conditions: for pIC50: read-out: Ave A2B cAMP IC50
adenosine A2A receptor = adenosine A2A receptor (Homo sapiens (Human), UniProt P29274); assay: Adenosine receptor activity assay (Table 1), A2A activity; format: biochemical; conditions: read-out: Ave A2A cAMP IC50
adenosine A2A receptor, sequence (P29274 whole entry): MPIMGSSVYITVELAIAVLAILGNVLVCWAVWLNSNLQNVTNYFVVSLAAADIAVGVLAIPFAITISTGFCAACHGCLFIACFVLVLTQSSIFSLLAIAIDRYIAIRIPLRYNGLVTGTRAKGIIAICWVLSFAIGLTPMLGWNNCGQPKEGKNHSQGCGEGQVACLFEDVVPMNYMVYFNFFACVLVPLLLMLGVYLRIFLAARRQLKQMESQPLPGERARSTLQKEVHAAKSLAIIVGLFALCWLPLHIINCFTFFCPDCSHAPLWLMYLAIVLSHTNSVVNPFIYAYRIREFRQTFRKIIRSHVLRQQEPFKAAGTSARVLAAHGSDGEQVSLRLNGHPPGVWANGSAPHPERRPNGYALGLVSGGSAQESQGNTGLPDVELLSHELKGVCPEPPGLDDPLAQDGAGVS

adenosine A1 receptor [1] = target: T1, adenosine A1 receptor (Homo sapiens (Human), UniProt P30542); assay: A1 cAMP IC50 assay (Table 1); format: biochemical
T1 sequence (P30542 whole entry): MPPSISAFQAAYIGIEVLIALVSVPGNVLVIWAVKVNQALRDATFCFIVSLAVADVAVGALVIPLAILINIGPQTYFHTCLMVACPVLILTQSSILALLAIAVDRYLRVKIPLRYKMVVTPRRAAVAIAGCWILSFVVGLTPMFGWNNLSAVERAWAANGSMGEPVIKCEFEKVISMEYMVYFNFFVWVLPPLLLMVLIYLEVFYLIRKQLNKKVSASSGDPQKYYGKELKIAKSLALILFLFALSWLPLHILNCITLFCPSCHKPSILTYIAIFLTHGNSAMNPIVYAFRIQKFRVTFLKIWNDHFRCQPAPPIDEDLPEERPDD

adenosine A3 receptor [2] = target: T2, adenosine A3 receptor (Homo sapiens (Human), UniProt P0DMS8); assay: A3 cAMP IC50 assay (Table 1); format: biochemical
T2 sequence (P0DMS8 whole entry): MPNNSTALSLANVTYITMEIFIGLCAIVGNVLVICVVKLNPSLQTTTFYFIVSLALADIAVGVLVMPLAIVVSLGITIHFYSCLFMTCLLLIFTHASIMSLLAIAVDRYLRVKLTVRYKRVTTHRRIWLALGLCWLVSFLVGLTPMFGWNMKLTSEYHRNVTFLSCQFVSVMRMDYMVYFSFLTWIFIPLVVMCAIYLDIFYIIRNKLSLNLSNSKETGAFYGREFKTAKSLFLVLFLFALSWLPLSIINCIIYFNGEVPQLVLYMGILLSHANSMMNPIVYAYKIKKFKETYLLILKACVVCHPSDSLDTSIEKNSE

CYP3A4 = CYP3A4 (Homo sapiens (Human), UniProt P08684); assay: CYP450 inhibition at 10 μM, CYP3A4; format: in vitro ADME; conditions: human, 10 μM, read-out: CYP 450 % INH @ 10 μM
CYP3A4, sequence (P08684 whole entry): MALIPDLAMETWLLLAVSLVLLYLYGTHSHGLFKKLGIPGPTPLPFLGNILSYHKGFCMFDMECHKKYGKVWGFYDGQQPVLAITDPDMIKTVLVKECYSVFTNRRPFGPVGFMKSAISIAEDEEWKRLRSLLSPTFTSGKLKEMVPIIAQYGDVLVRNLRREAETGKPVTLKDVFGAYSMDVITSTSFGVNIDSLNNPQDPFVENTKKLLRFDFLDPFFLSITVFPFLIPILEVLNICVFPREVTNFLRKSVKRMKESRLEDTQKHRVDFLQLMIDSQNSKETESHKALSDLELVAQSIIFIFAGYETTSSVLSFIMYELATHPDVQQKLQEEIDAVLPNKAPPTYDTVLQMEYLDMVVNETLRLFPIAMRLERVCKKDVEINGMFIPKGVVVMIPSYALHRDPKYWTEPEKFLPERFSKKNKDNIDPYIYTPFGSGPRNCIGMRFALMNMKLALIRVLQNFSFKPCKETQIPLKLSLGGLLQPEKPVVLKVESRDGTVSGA

[3] = Hepatocyte (Hep) intrinsic clearance, rat; format: in vitro ADME; conditions: hepatocytes
[4] = Hepatocyte (Hep) intrinsic clearance, human; format: in vitro ADME; conditions: hepatocytes
adenosine A1 receptor [5] = target: T1, adenosine A1 receptor; assay: Adenosine receptor activity assay (Table 1), A1 cAMP; format: biochemical
adenosine A3 receptor [6] = target: T2, adenosine A3 receptor; assay: Adenosine receptor activity assay (Table 1), A3 cAMP; format: biochemical
[7] = A2A activity to A2B activity (A2A/A2B)
[8] = A2A activity to the A2B activity, A2A/A2B

adenosine A2B receptor, sequence (P29275 whole entry): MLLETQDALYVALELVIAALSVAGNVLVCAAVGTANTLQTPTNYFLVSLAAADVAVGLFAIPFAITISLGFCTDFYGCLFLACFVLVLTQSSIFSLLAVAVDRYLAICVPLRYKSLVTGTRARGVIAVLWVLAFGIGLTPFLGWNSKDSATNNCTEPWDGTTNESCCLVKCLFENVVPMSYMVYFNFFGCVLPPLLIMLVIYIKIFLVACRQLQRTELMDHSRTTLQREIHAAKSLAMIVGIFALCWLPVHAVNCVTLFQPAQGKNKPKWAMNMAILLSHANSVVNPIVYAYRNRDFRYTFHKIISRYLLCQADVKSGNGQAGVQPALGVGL

Molecule	Ratio (adenosine A2B receptor; [7])	pIC50 (adenosine A2B receptor)	pIC50 (adenosine A2A receptor)	pIC50 (adenosine A1 receptor [1])	pIC50 (adenosine A3 receptor [2])	inhibition at 10 µM (CYP3A4) [%]	hepatocyte CLint [3] [µL/min/1e6 cells]	hepatocyte CLint [4] [µL/min/1e6 cells]	Ratio (adenosine A2B receptor; [8])	pIC50 (adenosine A2B receptor; cAMP)	pIC50 (adenosine A2A receptor; cAMP)	pIC50 (adenosine A1 receptor [5])	pIC50 (adenosine A3 receptor [6])
C[C@@H]1CCN(C(=O)c2nc(N[C@@H](C)c3ccccn3)nc3ccsc23)C1 [Example Z86, ((R)-3-Methylpyrrolidin-1-yl)(2-(((S)-1-(pyridin-2-yl)ethyl)amino)thieno[3,2-d]pyrimidin-4-yl)methanone]	4.25	7.30 to 8.00	7.00 to 7.30	< 6.30	< 6.30	19	55.1	11.8					
C[C@H](Nc1nc(C(=O)N2CCC2)c2sccc2n1)c1ccccn1 [Example Z90, (S)-Azetidin-1-yl(2-((1-(pyridin-2-yl)ethyl)amino)thieno[3,2-d]pyrimidin-4-yl)methanone]	18.88	> 8.00	7.00 to 7.30	< 6.30	< 6.30	0	33.3	6.32					
Cc1ncccc1CNc1nc(C(=O)N2CCCC2)c2sccc2n1 [Example Z91, (2-(((2-Methylpyridin-3-yl)methyl)amino)thieno[3,2-d]pyrimidin-4-yl)(pyrrolidin-1-yl)methanone]	16.69	7.30 to 8.00	6.30 to 7.00			19	47.1	7.19					
C[C@H](Nc1nc(C(=O)N2CCC(F)(F)C2)c2sccc2n1)c1ccccn1 [Example Z96, (S)-(3,3-Difluoropyrrolidin-1-yl)(2-((1-(pyridin-2-yl)ethyl)amino)thieno[3,2-d]pyrimidin-4-yl)methanone]	5.59	7.30 to 8.00	6.30 to 7.00	< 6.30	< 6.30	0	40.7	16.8					
C[C@H](Nc1nc(C(=O)N2CCOC2)c2sccc2n1)c1ccccn1 [Example Z105, (S)-Oxazolidin-3-yl(2-((1-(pyridin-2-yl)ethyl)amino)thieno[3,2-d]pyrimidin-4-yl)methanone]	19.04	> 8.00	6.30 to 7.00	< 6.30	< 6.30	1.91	27.7	58.9					
O=C(c1nc(NCc2cncc(F)c2)nc2ccsc12)N1CC(O)C1 [Example Z109, (2-(((5-Fluoropyridin-3-yl)methyl)amino)thieno[3,2-d]pyrimidin-4-yl)(3-hydroxyazetidin-1-yl)methanone]	68.08	> 8.00	< 6.30	< 6.30	< 6.30	28.4	19.9	4.11					
CCNC(=O)c1nc(N[C@@H](C)c2ccccn2)nc2ccsc12 [Example Z111, (S)—N-Ethyl-2-((1-(pyridin-2-yl)ethyl)amino)thieno[3,2-d]pyrimidine-4-carboxamide]	15.70	> 8.00	7.00 to 7.30	< 6.30	< 6.30	19.9	45.4	8.64					
COC1CN(C(=O)c2nc(NCc3cncc(F)c3)nc3ccsc23)C1 [Example Z115, (2-(((5-Fluoropyridin-3-yl)methyl)amino)thieno[3,2-d]pyrimidin-4-yl)(3-methoxyazetidin-1-yl)methanone]	71.92	> 8.00	6.30 to 7.00	< 6.30	< 6.30	75	51.7	13.9					
O=C(c1nc(NCc2cccc(Cl)c2)nc2ccsc12)N1CC(O)C1 [Example Z122, (2-((3-Chlorobenzyl)amino)thieno[3,2-d]pyrimidin-4-yl)(3-hydroxyazetidin-1-yl)methanone]		7.30 to 8.00	6.30 to 7.00			22.9	112	68.4					
Cc1cc(C(=O)NC2CN(C(=O)c3nc(N[C@@H](C)c4cncc(F)c4)nc4ccsc34)C2)c(C)o1 [Example Z647, (S)—N-(1-(2-((1-(5-Fluoropyridin-3-yl)ethyl)amino)thieno[3,2-d]pyrimidine-4-carbonyl)azetidin-3-yl)-2,5-dimethylfuran-3-carboxamide]									1.16	7.30 to 8.00	7.30 to 8.00	< 6.30	6.30 to 7.00
(S)—N-(1-(2-((1-(5-Fluoropyridin-3-yl)ethyl)amino)-7-methylthieno[3,2-d]pyrimidine-4-carbonyl)azetidin-3-yl)pivalamide [Example Z624]									0.18	7.30 to 8.00	> 8.00	< 6.30	6.30 to 7.00
N-(tert-Butoxy)-1-(2-(((S)-1-(5-fluoropyridin-3-yl)ethyl)amino)-6-methylthieno[3,2-d]pyrimidine-4-carbonyl)pyrrolidine-3-carboxamide [Example Z602]									0.49	7.30 to 8.00	> 8.00	< 6.30	6.30 to 7.00

More lines, now with the values ahead:

Ratio (adenosine A2B receptor; [7])	pIC50 (adenosine A2B receptor)	pIC50 (adenosine A2A receptor)	pIC50 (adenosine A1 receptor [1])	pIC50 (adenosine A3 receptor [2])	inhibition at 10 µM (CYP3A4) [%]	hepatocyte CLint [3] [µL/min/1e6 cells]	hepatocyte CLint [4] [µL/min/1e6 cells]	Ratio (adenosine A2B receptor; [8])	pIC50 (adenosine A2B receptor; cAMP)	pIC50 (adenosine A2A receptor; cAMP)	pIC50 (adenosine A1 receptor [5])	pIC50 (adenosine A3 receptor [6])	Molecule
11.70	7.30 to 8.00	6.30 to 7.00	< 6.30	< 6.30	19.9	57.6	13.3						C[C@H]1CCN(C(=O)c2nc(N[C@@H](C)c3ccccn3)nc3ccsc23)C1 [Example Z87, ((S)-3-Methylpyrrolidin-1-yl)(2-(((S)-1-(pyridin-2-yl)ethyl)amino)thieno[3,2-d]pyrimidin-4-yl)methanone]
10.92	7.30 to 8.00	6.30 to 7.00	< 6.30	< 6.30	0	46.5	45.2						C[C@H](Nc1nc(C(=O)N2CC(F)(F)C2)c2sccc2n1)c1ccccn1 [Example Z92, (S)-(3,3-Difluoroazetidin-1-yl)(2-((1-(pyridin-2-yl)ethyl)amino)thieno[3,2-d]pyrimidin-4-yl)methanone]
30.97	7.30 to 8.00	< 6.30	< 6.30	< 6.30	53.8	61.4	41.3						O=C(c1nc(NCc2cncc(F)c2)nc2ccsc12)N1CC(F)(F)C1 [Example Z97, (3,3-Difluoroazetidin-1-yl)(2-(((5-fluoropyridin-3-yl)methyl)amino)thieno[3,2-d]pyrimidin-4-yl)methanone]
37.02	7.30 to 8.00	< 6.30	< 6.30	< 6.30	48.9	65.3	21.1						O=C(c1nc(NCc2cncc(F)c2)nc2ccsc12)N1CC[C@H](F)C1 [Example Z99, (S)-(2-(((5-Fluoropyridin-3-yl)methyl)amino)thieno[3,2-d]pyrimidin-4-yl)(3-fluoropyrrolidin-1-yl)methanone]
11.09	7.30 to 8.00	6.30 to 7.00	< 6.30	< 6.30	7.65	22.2	1.89						C[C@H](Nc1nc(C(=O)N2CC(O)C2)c2sccc2n1)c1ccccn1 [Example Z100, (S)-(3-Hydroxyazetidin-1-yl)(2-((1-(pyridin-2-yl)ethyl)amino)thieno[3,2-d]pyrimidin-4-yl)methanone]
10.93	7.30 to 8.00		< 6.30	< 6.30	31	23.4	5.66						COC1CN(C(=O)c2nc(N[C@@H](C)c3ccccn3)nc3ccsc23)C1 [Example Z108, (S)-(3-Methoxyazetidin-1-yl)(2-((1-(pyridin-2-yl)ethyl)amino)thieno[3,2-d]pyrimidin-4-yl)methanone]
	7.30 to 8.00	6.30 to 7.00			48.6	249	85.1						O=C(c1nc(NCc2cccc(Cl)c2)nc2ccsc12)N1CCC1 [Example Z121, Azetidin-1-yl(2-((3-chlorobenzyl)amino)thieno[3,2-d]pyrimidin-4-yl)methanone]
42.97	7.30 to 8.00	< 6.30	< 6.30	< 6.30	76.5	22	5.54						O=C(NCCO)c1nc(NCc2cncc(F)c2)nc2ccsc12 [Example Z123, 2-(((5-Fluoropyridin-3-yl)methyl)amino)-N-(2-hydroxyethyl)thieno[3,2-d]pyrimidine-4-carboxamide]
								0.65	7.30 to 8.00	7.30 to 8.00	< 6.30	6.30 to 7.00	Cc1cc(C)cc(C(=O)NC2CN(C(=O)c3nc(N[C@@H](C)c4cncc(F)c4)nc4ccsc34)C2)c1 [Example Z646, (S)—N-(1-(2-((1-(5-Fluoropyridin-3-yl)ethyl)amino)thieno[3,2-d]pyrimidine-4-carbonyl)azetidin-3-yl)-3,5-dimethylbenzamide]
